The source made the active and inactive calls. The rule behind the calls is not given here. Residues, ends and D or L forms follow the SMILES beside them. *: point of attachment. Octanoyl = CCCCCCCC(=O)*
Experiments:
Assay type in all cases: functional, cell-based
PC-12 = assay: Cytotoxicity against rat PC12 cell line by [3H] thymidine incorporation assay; settings: PC-12, 24 h
KB = assay: Cytotoxicity against human KB cell line by [3H] thymidine incorporation assay
LM [1] = assay: Cytotoxicity against mouse LM cell line by [3H] thymidine incorporation assay
LM [2] = assay: Induction of NGF secretion in LM cells at 50 uM after 24 hrs; settings: Mus musculus

| SMILES | IC50 (PC-12) [µM] | IC50 (KB) [µM] | IC50 (LM [1]) [µM] | Activity (LM [2]) |
| --- | --- | --- | --- | --- |
| CCCCCCCC(=O)N[C@@H](CC(N)=O)C(=O)N[C@@H](CCC(N)=O)C(=O)N[C@H](C=O)CC(C)C (Octanoyl-Asn-Gln-Leu-aldehyde) | 1.67 | 4.83 | 3.33 | Active |
| CCCCCCCCC[C@@H](O)CC(=O)N[C@@H](CC(N)=O)C(=O)N[C@@H](CCC(N)=O)C(=O)N[C@H](C=O)CC(C)C [FELLUTAMIDE B] | 0.437 | 0.349 | 0.482 | Active |

— ChEMBL document CHEMBL1138927, “Neurotrophic peptide aldehydes: solid phase synthesis of fellutamide B and a simplified analog” (Bioorg Med Chem Lett, 2006)
